Assay results reported in ChEMBL document CHEMBL3301361, “Experimental in vitro DMPK and physicochemical data on a set of publicly disclosed compounds”.
Values after ≈ are worked out from the molar mass of the structure shown.

experiment: physchem; settings: pH 7.4 buffer

| SMILES | solubility thermodynamic [µM] |
| --- | --- |
| O=C1CSc2ccccc2N1 | 871 (≈ 144 µg/mL) |
| CC(C)(C)c1csc(N2CCN(C(=O)[C@@H]3CCCC[C@H]3C(=O)NC3(C#N)CC3)CC2)n1 | 282 (≈ 125 µg/mL) |
| Cc1cc(C)cc(-c2[nH]c3sc(C(C)(C)C(=O)N4C5CCC4CC5)cc3c2[C@H](C)CNC(=O)N2CCC(c3ccncc3)CC2)c1 | 0.6 (≈ 0.383 µg/mL) |
| CCN(CCO)CCCOc1ccc2c(Nc3cc(CC(=O)Nc4cccc(F)c4F)[nH]n3)ncnc2c1 | 93.3 (≈ 49 µg/mL) |
| COc1cc2nccc(Oc3ccc(NC(=O)Nc4cc(C)on4)c(Cl)c3)c2cc1OC [TIVOZANIB] | 9.3 (≈ 4.23 µg/mL) |
| CCN(CCO)CCCOc1cc2ncnc(Nc3ncc(CC(=O)Nc4cccc(F)c4)s3)c2cc1OC | 0.6 (≈ 0.333 µg/mL) |
| CC#CC(=O)Nc1ccc2ncnc(Nc3cccc(Br)c3)c2c1 | 0.8 (≈ 0.305 µg/mL) |
| Nc1nc2cc(Cl)ccc2n1CCCO | 1320 (≈ 298 µg/mL) |
| Oc1ncnc2c1nnn2Cc1ccccc1 | 209 (≈ 47.5 µg/mL) |
| O=C(Nc1cccnc1)c1ccc(OCCCN2CCCC2)cc1OCc1ccccc1 | 209 (≈ 90.1 µg/mL) |
| Nc1ncc(-c2cnn(CCO)c2)cc1-c1nc2ccccc2o1 | 3.1 (≈ 0.996 µg/mL) |
| O=c1[nH]c2cc(Cl)c([N+](=O)[O-])cc2c(O)c1-c1ccccc1 | 29.5 (≈ 9.34 µg/mL) |
| CCC(C)(C)NC(=O)Cc1ccc(C)cc1 | 240 (≈ 52.6 µg/mL) |
| O=S(=O)(NCCNC/C=C/c1ccc(Br)cc1)c1cccc2cnccc12 | 61.7 (≈ 27.5 µg/mL) |
| CNC(=O)c1ccc(CN2CCC(c3ccc(C(=O)Nc4ccccc4N)cc3)CC2)cc1 | 4.8 (≈ 2.12 µg/mL) |
| CCc1cc(NC(=O)Cc2ccc(Oc3ccnc4cc(OC)c(OC)cc34)cc2OC)[nH]n1 | 11 (≈ 5.09 µg/mL) |
| COc1ccc(N(C)C(=O)c2ccc3nc(-c4ccccc4)c(-c4ccccc4)nc3c2)cc1 | 0.7 (≈ 0.312 µg/mL) |
| COC[C@H](C)Oc1cc(Oc2ccc(OC)cc2)cc(C(=O)Nc2ccc(C(=O)O)cn2)c1 | 1510 (≈ 685 µg/mL) |
| COc1cc2c(Nc3ncc(CC(=O)Nc4cccc(F)c4)s3)ncnc2cc1OCCCN1CCN(C)CC1 | 1.8 (≈ 1.02 µg/mL) |
| Cc1csc(NC(=O)c2ccccc2)n1 | 331 (≈ 72.3 µg/mL) |

| SMILES | solubility thermodynamic [µM] |
| --- | --- |
| C#CCN(Cc1ccc2nc(CO)[nH]c(=O)c2c1)c1ccc(C(=O)NCc2cccc([N+](=O)[O-])c2)cc1 | 0.4 (≈ 0.199 µg/mL) |
| O=C(Nc1cc(Cl)cc2c1[nH]c1cnccc12)c1cccnc1 | 3.9 (≈ 1.26 µg/mL) |
| Nc1ccc2c(c1)cc(C(=O)O)n2Cc1ccc(Cl)c(Cl)c1 | 347 (≈ 116 µg/mL) |
| Cc1cc(CNc2ncc(Br)c(Nc3cc(CCc4ccccc4)[nH]n3)n2)on1 | 1.7 (≈ 0.772 µg/mL) |
| NC(=O)Nc1sc(-c2ccc(Cl)c(Cl)c2)cc1C(=O)N[C@H]1CCCNC1 | 66.1 (≈ 27.3 µg/mL) |
| CCOC(=O)Cc1csc(NC(=O)Nc2ccc(Cl)cc2)n1 | 2.6 (≈ 0.883 µg/mL) |
| CC(=O)Nc1ccc(-c2ccccc2)cc1 | 79.4 (≈ 16.8 µg/mL) |
| CN(C(=O)Cc1ccc(S(C)(=O)=O)cc1F)C1CCN(Cc2ccc(C(F)(F)F)cc2)CC1 | 74.1 (≈ 36.1 µg/mL) |
| CCn1cc(NC(=O)Cc2ncc(Oc3ccnc4cc(OC)ccc34)cc2OC)cn1 | 17.4 (≈ 7.54 µg/mL) |
| COc1cc2ncnc(Nc3cc(O)c(C)cc3F)c2cc1OC | 2.2 (≈ 0.725 µg/mL) |
| CCOC(=O)c1nn(-c2ccccc2)c(=O)c2c(N)scc12 | 6.2 (≈ 1.96 µg/mL) |
| Cn1nc(C(C)(C)C)cc1C(=O)N[C@@H](Cc1cccc(Cl)c1)C(=O)NCC#N | 93.3 (≈ 37.5 µg/mL) |
| O=C(O)Cc1cccc(-c2ccc(NC(=O)c3nnc(Nc4ccccc4F)o3)cc2)c1 | 257 (≈ 111 µg/mL) |
| CN(C(=O)Cc1ccc(-n2cnnn2)cc1)[C@@H]1CCN(Cc2ccc(C(F)(F)F)cc2)C[C@@H]1F | 16.2 (≈ 7.72 µg/mL) |
| Nc1ccccc1NC(=O)c1ccc(N2CCN(Cc3ccccc3)CC2)cc1 | 28.2 (≈ 10.9 µg/mL) |
| c1ccc(CSc2nnc(-c3ccco3)c(-c3ccco3)n2)cc1 | 5.2 (≈ 1.74 µg/mL) |
| COc1cc(S(N)(=O)=O)c(OC)cc1N | 93.3 (≈ 21.7 µg/mL) |
| CCCNc1nc2ccccc2c(=O)[nH]1 | 537 (≈ 109 µg/mL) |
| CC1(C)C(=O)N(c2ccc(SC(F)(F)F)cc2)C(=O)N1Cc1ccncc1 | 43.7 (≈ 17.3 µg/mL) |
| CCCSc1c(C(=O)NC2CCCCC2)cnn1C | 1230 (≈ 346 µg/mL) |

| SMILES | solubility thermodynamic [µM] |
| --- | --- |
| CC1(C)Oc2ncnc(N)c2N=C1c1ccc(C23CC4CC(CC(CC(=O)O)(C4)C2)C3)cc1 | 79.4 (≈ 35.5 µg/mL) |
| O=C(O)c1csc(NC(=O)C(CC2CCCC2)c2ccc(Cl)c(Cl)c2)n1 (stereo not given) | 34.7 (≈ 14.3 µg/mL) |
| CC1(C)SCCN(S(=O)(=O)c2ccc(Oc3ccncc3)cc2)[C@H]1C(=O)NO [PRINOMASTAT] | 69.2 (≈ 29.3 µg/mL) |
| COc1cc(Oc2ccc(C(=O)NCc3ccncc3)cc2)ccc1[N+](=O)[O-] | 21.4 (≈ 8.12 µg/mL) |
| Clc1ccc2c(c1)Nc1ccccc1S2 | 0.7 (≈ 0.164 µg/mL) |
| N#Cc1c(C2CCCNC2)cc(-c2c(O)cccc2OCC2CC2)nc1N (stereo not given) | 8.1 (≈ 2.95 µg/mL) |
| C[C@@H](Oc1cccc2ncnc(Nc3ccc4c(cnn4Cc4ccccn4)c3)c12)C(N)=O | 4 (≈ 1.76 µg/mL) |
| CN(C(=O)Cc1ccc(-n2cnnn2)cc1)[C@@H]1CCN(Cc2ccc(C(F)(F)F)nc2)C[C@@H]1F | 95.5 (≈ 45.6 µg/mL) |
| O=C(NCc1ccccc1)c1ccc(=O)oc1 | 135 (≈ 30.9 µg/mL) |
| Nc1cccc(S(=O)(=O)Nc2ccccc2)c1 | 1020 (≈ 254 µg/mL) |
| CCN(CC)C(=O)C(C)(C)c1ccc2[nH]c(-c3cc(C)cc(C)c3)c(CCNCCCCc3ccncc3)c2c1 | 141 (≈ 76.1 µg/mL) |
| O=C(Nc1cccc(O)c1)c1ccc(OCCCN2CCCC2)cc1OCc1ccccn1 | 513 (≈ 230 µg/mL) |
| Cc1cnc(NC(=O)CSc2nnc(C)s2)s1 | 70.8 (≈ 20.3 µg/mL) |
| CC(=O)Nc1nc2c(s1)C(=O)NCCC2 | 1350 (≈ 304 µg/mL) |
| O=C(c1ccc(F)cc1)C1CCN(C(=O)c2ccc(OC(F)(F)F)cc2)CC1 | 11.5 (≈ 4.55 µg/mL) |
| CCC[C@@H]1O[C@@H]2C[C@H]3[C@@H]4CCC5=CC(=O)C=C[C@]5(C)[C@H]4[C@@H](O)C[C@]3(C)[C@]2(C(=O)CO)O1 [DEXBUDESONIDE] | 19.5 (≈ 8.4 µg/mL) |
| CC(C)(C)OC(=O)N1CCC[C@H]1C(=O)Nc1ccc(Br)cc1 | 23.4 (≈ 8.64 µg/mL) |
| CN(C)C(=O)[C@H](Cc1ccccc1)NC(=O)c1cc2cc(Br)ccc2[nH]1 | 1 (≈ 0.414 µg/mL) |
| COc1cccc(NC(=O)Cn2cc(Oc3ccnc4cc(OC)c(OC)cc34)cn2)c1 | 66.1 (≈ 28.7 µg/mL) |

More lines, now with the values ahead:

| solubility thermodynamic [µM] | SMILES |
| --- | --- |
| 2.2 (≈ 1.02 µg/mL) | C[C@H]1CN(c2ncc(OCc3ccc(S(C)(=O)=O)cc3)cn2)CCN1C(=O)OC(C)(C)C |
| 457 (≈ 181 µg/mL) | C[C@H](C#N)NC(=O)[C@@H]1CCCC[C@H]1C(=O)N1CCc2[nH]c3ccc(F)cc3c2C1 |
| 1350 (≈ 300 µg/mL) | O=c1cc(-c2cccnc2)[nH]c2ccccc12 |
| 2.1 (≈ 0.761 µg/mL) | Cc1ccc(C(=O)C2CCN(S(=O)(=O)c3c(C)noc3C)CC2)cc1 |
| 190 (≈ 66.7 µg/mL) | O=C(Nc1ccccc1C(F)(F)F)N1CCN(c2ccccn2)CC1 |
| 7.2 (≈ 3.12 µg/mL) | CS(=O)(=O)Nc1cccc(Nc2nccc(Nc3c(Cl)ccc4c3OCO4)n2)c1 |
| 575 (≈ 225 µg/mL) | N#CC1(NC(=O)[C@@H]2CCCC[C@H]2C(=O)N2CCc3oc4ccccc4c3C2)CC1 |
| 4.7 (≈ 1.98 µg/mL) | CO[C@]1(c2cc(F)cc(S(=O)(=O)c3ccc(/C(C)=N/O)cc3)c2)CCO[C@@H](C)C1 |
| 58.9 (≈ 25 µg/mL) | O=C(Nc1cccc(O)c1)c1ccc(OCCCN2CCCC2)cc1OC1CCCC1 |
| 0.8 (≈ 0.304 µg/mL) | O=C(c1ccc(F)cc1)C1CCN(C(=O)c2ccc(Cl)c(Cl)c2)CC1 |
| 93.3 (≈ 40.9 µg/mL) | CN(C)CCNS(=O)(=O)c1ccc(Nc2nccc(-c3cnc4cccnn34)n2)cc1 |
| 302 (≈ 186 µg/mL) | COc1cc2c(Nc3ncc(CNS(=O)(=O)c4cccc(F)c4)s3)ncnc2cc1OCCCN1CCC(CO)CC1 |
| 166 (≈ 84.6 µg/mL) | C[C@H](Oc1cccc2ncnc(Nc3ccc4c(cnn4Cc4ccccn4)c3)c12)C(=O)N1CCOCC1 |
| 631 (≈ 155 µg/mL) | Cc1ccc2c(c1)-c1ccccc1S(=O)(=O)N2 |
| 1.3 (≈ 0.645 µg/mL) | COc1cc(N2CCN(C(C)=O)CC2)ccc1Nc1ncc(Cl)c(-c2cnc3ccc(F)cn23)n1 |
| 5.1 (≈ 1.79 µg/mL) | Cc1cccc2c3cc(NC(=O)N4CCOCC4)ccc3n(C(C)C)c12 |
| 0.3 (≈ 0.0829 µg/mL) | COc1ccc(-c2[nH]nc3c2C(=O)c2ccccc2-3)cc1 |
| 58.9 (≈ 26 µg/mL) | CCN1CCN(Cc2ccc(-c3cc4c(N[C@H](C)c5ccccc5)ncnc4[nH]3)cc2)CC1 [AEE-788] |

| solubility thermodynamic [µM] | SMILES |
| --- | --- |
| 2.8 (≈ 1.39 µg/mL) | COc1cc(N2CCN(C(C)=O)CC2)ccc1Nc1ncc(Cl)c(-c2cnc3c(F)cccn23)n1 |
| 5.2 (≈ 2.37 µg/mL) | C[C@@H](c1ccc(-c2ccc(F)cc2F)cc1)N1CC[C@@](CCO)(c2ccc(F)cc2)OC1=O |
| 4.4 (≈ 2.14 µg/mL) | CC(C)Oc1cc(OCCN2CCOCC2)cc2ncnc(Nc3c(Cl)ccc4c3OCO4)c12 |
| 120 (≈ 50.9 µg/mL) | CC(=O)NC1CN(c2ccc(Nc3ncc(F)c(-c4cnc(C)n4C(C)C)n3)cc2)C1 |
| 77.6 (≈ 39.5 µg/mL) | O=c1cc(CN2CCOCC2)occ1OCCCCCSc1ccnc2cc(C(F)(F)F)ccc12 |
| 30.9 (≈ 14.2 µg/mL) | Cc1ccccc1N(C)c1ccnc(Nc2cc(N3CCOCC3)cc(N3CCOCC3)c2)n1 |
| 10.2 (≈ 4.82 µg/mL) | Cc1nc(-c2ccc(CN3CCC(N(C)C(=O)Cc4ccc(-n5cnnn5)cc4)CC3)cc2)no1 |
| 87.1 (≈ 30.1 µg/mL) | c1ccc2oc(-c3cncc(-c4cnn(C5CCNCC5)c4)c3)nc2c1 |
| 7.1 (≈ 3.37 µg/mL) | CC(C)(C)OC(=O)N1C[C@@H]2CC[C@H]1CN2c1ncc(OCc2ccc(S(C)(=O)=O)cc2)cn1 |
| 5 (≈ 2.61 µg/mL) | COc1cc(N2CCN(CC(=O)N(C)C)CC2)ccc1Nc1ncc(Cl)c(-c2cnc3ccccn23)n1 |
| 11 (≈ 4.35 µg/mL) | O=C(c1ccc(F)cc1)C1CCN(C(=O)c2cccc(OC(F)(F)F)c2)CC1 |
| 1 (≈ 0.448 µg/mL) | CC(C)(C)OC(=O)N1CCN(c2ccc(OCc3ccc(S(C)(=O)=O)cc3)cn2)CC1 |
| 224 (≈ 91.2 µg/mL) | CC(C)c1c(C(=O)NC2C3CC4CC(C3)CC2C4)cnn1-c1ccc(C(=O)O)cc1 (stereo not given) |
| 21.4 (≈ 9.75 µg/mL) | CN1CCC(c2cc(N3CCOCC3)nc(-c3cccc4[nH]ccc34)n2)(S(C)(=O)=O)CC1 |
| 0.1 (≈ 0.0365 µg/mL) | CC(C)(C)Cn1c2ccccc2c2cc(NC(=O)N3CCOCC3)ccc21 |
| 302 (≈ 131 µg/mL) | CCOc1cccc2c3c([nH]c12)CCN(C(=O)[C@@H]1CCCC[C@H]1C(=O)NC1(C#N)CC1)C3 |
| 1.5 (≈ 0.64 µg/mL) | CC(C)S(=O)(=O)C1(c2cc(N3CCOCC3)nc(-c3cccc4[nH]ccc34)n2)CC1 |
| 8.3 (≈ 3.26 µg/mL) | CN1CCN(c2ccc3nc(-c4c(N)c5c(F)cccc5[nH]c4=O)[nH]c3c2)CC1 [DOVITINIB] |
